Assay results published in ChEMBL document CHEMBL4052774, “Design, synthesis, molecular modeling and anti-hyperglycemic evaluation of quinazolin-4(3H)-one derivatives as potential PPARγ and SUR agonists” (Bioorg Med Chem, 2017).

What was measured:
[1] = target: T1, Peroxisome proliferator-activated receptor gamma (Homo sapiens, UniProt P37231); test: Displacement of fluormone-PPARgamma green from GST-tagged PPARgamma-LBD (unknown origin) by fluorescence polarization assay
T1 sequence (P37231 whole entry): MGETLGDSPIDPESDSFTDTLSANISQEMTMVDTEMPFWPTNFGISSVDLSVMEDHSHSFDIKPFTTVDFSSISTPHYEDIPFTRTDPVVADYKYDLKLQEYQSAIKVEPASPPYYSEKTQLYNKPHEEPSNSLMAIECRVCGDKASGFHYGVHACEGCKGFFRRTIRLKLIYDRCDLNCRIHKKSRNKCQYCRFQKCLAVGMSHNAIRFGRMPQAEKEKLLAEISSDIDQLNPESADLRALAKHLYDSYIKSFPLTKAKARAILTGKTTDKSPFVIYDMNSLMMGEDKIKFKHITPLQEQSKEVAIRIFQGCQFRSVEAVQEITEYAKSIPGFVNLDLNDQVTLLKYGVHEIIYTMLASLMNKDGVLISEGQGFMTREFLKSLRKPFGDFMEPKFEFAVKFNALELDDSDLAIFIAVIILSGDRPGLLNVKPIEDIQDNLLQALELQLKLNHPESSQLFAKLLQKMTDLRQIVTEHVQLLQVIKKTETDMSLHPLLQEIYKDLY

Rattus norvegicus = test: Antihyperglycemic activity in streptozotocin-induced diabetic Swiss albino rat assessed as decrease in blood glucose level at 20 mg/kg, po measured up to 3 hrs post dose relative to control; format: functional; design: scale not given: the % may be the effect or the level left
[2] = Agonist activity at SUR in Wistar rat pancreatic islets assessed as increase in insulin secretion at 5 to 20 uM incubated for 1 hr followed by glucose addition for 30 mins by quantitative sandwich enzyme immunoassay

IC50 ([1]; read-out: IC50) | SMILES | Activity (Rattus norvegicus) | EC50 [2] | IC50 [1]
4 µM | Cc1nc2ccccc2n(CC(=O)Nc2ccc(S(=O)(=O)NC(=O)Nc3ccccc3)cc2)c1=O |  |  | 
4 µM | Cc1nc2ccccc2n(CC(=O)Nc2ccc(S(=O)(=O)NC(=O)NC3CCCCC3)cc2)c1=O |  |  | 
4 µM | Cc1nc2ccccc2n(CC(=O)Nc2ccc(S(=O)(=O)NC(=S)NC3CCCCC3)cc2)c1=O |  |  | 
4 µM | CCCCNC(=S)NS(=O)(=O)c1ccc(NC(=O)Cn2c(=O)c(C)nc3ccccc32)cc1 |  |  | 
4 µM | CCCCNC(=O)NS(=O)(=O)c1ccc(NC(=O)Cn2c(=O)c(C)nc3ccccc32)cc1 |  |  | 
4 µM | Cc1nc2ccccc2n(CC(=O)Nc2ccc(S(=O)(=O)NC(=S)Nc3ccccc3)cc2)c1=O |  |  | 
 | Cc1nc2ccccc2c(=O)n1CC(=O)Nc1ccc(S(=O)(=O)NC(=O)Nc2ccccc2)cc1 | 19.66% |  | 
 | CCc1nc2ccccc2c(=O)n1CC(=O)Nc1ccc(S(=O)(=O)NC(=O)Nc2ccccc2)cc1 | 21.55% |  | 
 | CCCCNC(=O)NS(=O)(=O)c1ccc(NC(=O)Cn2c(C)nc3ccc(Br)cc3c2=O)cc1 | 28.25% |  | 
 | COc1ccc(-n2c(SCC(=O)Nc3ccc(S(=O)(=O)NC(=O)Nc4ccccc4)cc3)nc3ccccc3c2=O)cc1 | 24.58% |  | 
 | Cc1nc2ccc(Br)cc2c(=O)n1CC(=O)Nc1ccc(S(=O)(=O)NC(=O)Nc2ccccc2)cc1 | 21.33% |  | 
 | Cc1ccc(NC(=S)NS(=O)(=O)c2ccc(CCNS(=O)(=O)c3ccc(C)cc3)cc2)cc1 |  |  | Not Active
50 µM | Cc1ccc(NC(=S)NS(=O)(=O)c2ccc(CCNS(=O)(=O)c3ccccc3)cc2)cc1 |  |  | 
1000 µM | COc1ccc(NC(=S)NS(=O)(=O)c2ccc(CCNS(=O)(=O)c3ccccc3)cc2)cc1 |  |  | 
33.3 µM | O=S(=O)(NCCc1ccc(S(=O)(=O)NC(=S)Nc2ccc(Cl)cc2)cc1)c1ccc(Cl)cc1 |  |  | 
33.3 µM | COc1ccc(NC(=S)NS(=O)(=O)c2ccc(CCNS(=O)(=O)c3ccc(Cl)cc3)cc2)cc1 |  |  | 
12.5 µM | O=C(NC1CCCCC1)NS(=O)(=O)c1ccc(CCNS(=O)(=O)c2ccccc2)cc1 |  |  | 
1.6 µM | CC1CCC(NC(=O)NS(=O)(=O)c2ccc(CCNS(=O)(=O)c3ccc(Br)cc3)cc2)CC1 (configuration not stated) |  |  | 
3.4 µM | CC1CCC(NC(=O)NS(=O)(=O)c2ccc(CCNS(=O)(=O)c3ccccc3)cc2)CC1 (configuration not stated) |  |  | 
3.1 µM | O=C(NC1CCCCC1)NS(=O)(=O)c1ccc(CCNS(=O)(=O)c2ccc(Cl)cc2)cc1 |  |  | 
2.39 µM | O=C(NC1CCCCC1)NS(=O)(=O)c1ccc(CCNS(=O)(=O)c2ccc(Br)cc2)cc1 |  |  | 
2.4 µM | CC(=O)Nc1ccc(S(=O)(=O)NCCc2ccc(S(=O)(=O)NC(=O)NC3CCC(C)CC3)cc2)cc1C (configuration not stated) |  |  | 
 | COc1ccc(NC(=S)NS(=O)(=O)c2ccc(CCNS(=O)(=O)c3ccc(C)cc3)cc2)cc1 |  |  | Not Active
 | Cc1ccc(S(=O)(=O)NCCc2ccc(S(=O)(=O)NC(=S)Nc3ccc(Cl)cc3)cc2)cc1 |  |  | Not Active
7.14 µM | CC(=O)Nc1ccc(S(=O)(=O)NCCc2ccc(S(=O)(=O)NC(=O)NC3CCC(C)CC3)cc2)cc1 (configuration not stated) |  |  | 
33.3 µM | O=S(=O)(NCCc1ccc(S(=O)(=O)NC(=S)Nc2ccc(Cl)cc2)cc1)c1ccccc1 |  |  | 
 | CCC1=C(C)CN(C(=O)NCCc2ccc(S(=O)(=O)NC(=O)N[C@H]3CC[C@H](C)CC3)cc2)C1=O [GLIMEPIRIDE] |  | 0.79 µM | 

SMILES | IC50 ([1]; read-out: IC50) | Activity (Rattus norvegicus) | EC50 [2] | IC50 [1]
COc1ccc(-n2c(SCC(=O)Nc3ccc(S(=O)(=O)NC(=O)NC4CCCCC4)cc3)nc3ccccc3c2=O)cc1 | 0.35 µM | 46.42% | 0.97 µM | 
CCCCNC(=O)NS(=O)(=O)c1ccc(NC(=O)CSc2nc3ccccc3c(=O)n2-c2ccc(OC)cc2)cc1 | 0.369 µM | 41.23% | 1.01 µM | 
Cc1ccc(-n2c(SCC(=O)Nc3ccc(S(=O)(=O)NC(=O)Nc4ccccc4)cc3)nc3ccccc3c2=O)cc1 | 0.371 µM | 33.42% | 3.09 µM | 
CCCCNC(=O)NS(=O)(=O)c1ccc(NC(=O)Cn2c(CC)nc3ccccc3c2=O)cc1 | 0.408 µM | 38.44% | 2.51 µM | 
Cc1ccc(-n2c(SCC(=O)Nc3ccc(S(=O)(=O)NC(=O)NC4CCCCC4)cc3)nc3ccccc3c2=O)cc1 | 0.402 µM | 40.43% | 1.31 µM | 
CCc1nc2ccccc2c(=O)n1CC(=O)Nc1ccc(S(=O)(=O)NC(=O)NC2CCCCC2)cc1 | 0.59 µM | 34.25% | 1.15 µM | 
CCCCNC(=O)NS(=O)(=O)c1ccc(NC(=O)Cn2c(C)nc3ccccc3c2=O)cc1 | 0.98 µM | 29.22% | 2.91 µM | 
CCCCNC(=O)NS(=O)(=O)c1ccc(NC(=O)CSc2nc3ccccc3c(=O)n2-c2ccc(C)cc2)cc1 | 0.434 µM | 37.76% | 1.53 µM | 
Cc1nc2ccccc2c(=O)n1CC(=O)Nc1ccc(S(=O)(=O)NC(=O)NC2CCCCC2)cc1 | 0.464 µM | 38.64% | 2.69 µM | 
Cc1nc2ccc(Br)cc2c(=O)n1CC(=O)Nc1ccc(S(=O)(=O)NC(=O)NC2CCCCC2)cc1 | 0.353 µM | 42.5% | 1.68 µM | 
